# From patent US11447486B2, “2-amino-benzimidazole derivatives and their use as 5-lipoxygenase and/or prostaglandin E synthase inhibitors” (INSTITUT PASTEUR KOREA, priority 2014, dated 2022)
# Like-named read-outs stand apart in the source and are kept apart here.
# Key:
# human 5-LOX = molecular target: T1, human 5-LOX (Homo sapiens, UniProt P09917); experiment: 5-LOX enzyme activity, fluorescence method (5-HPETE, H2DCFDA); assay type: biochemical; details: read-out: 5-LO (IC50)
# T1 construct: purchased Cayman 60402; host or cells: insect cells (lysate)
# T1 sequence (P09917 1-674): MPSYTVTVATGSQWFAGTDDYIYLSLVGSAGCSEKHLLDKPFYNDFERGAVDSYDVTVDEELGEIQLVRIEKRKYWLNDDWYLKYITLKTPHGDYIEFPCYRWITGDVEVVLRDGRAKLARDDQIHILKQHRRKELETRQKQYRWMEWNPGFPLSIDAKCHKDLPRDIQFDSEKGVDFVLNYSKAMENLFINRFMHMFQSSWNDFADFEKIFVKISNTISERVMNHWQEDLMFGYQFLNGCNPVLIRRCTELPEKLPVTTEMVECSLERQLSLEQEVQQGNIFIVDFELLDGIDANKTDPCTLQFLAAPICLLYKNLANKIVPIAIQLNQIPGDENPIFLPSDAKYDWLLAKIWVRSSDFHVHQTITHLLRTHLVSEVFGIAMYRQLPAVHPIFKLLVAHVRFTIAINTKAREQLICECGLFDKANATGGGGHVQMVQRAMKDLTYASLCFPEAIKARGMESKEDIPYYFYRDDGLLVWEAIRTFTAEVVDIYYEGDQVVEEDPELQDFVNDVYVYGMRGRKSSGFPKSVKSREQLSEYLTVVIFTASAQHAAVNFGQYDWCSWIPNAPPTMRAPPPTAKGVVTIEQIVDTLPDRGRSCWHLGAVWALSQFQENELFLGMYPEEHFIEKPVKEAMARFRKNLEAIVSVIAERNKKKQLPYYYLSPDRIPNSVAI
# In short: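 Fluorescence-based read-out, run entirely at room temperature. Enzyme mixture was exposed to a dose range of compound from 0.5 nM to 10 uM for 5 min before ATP and arachidonic acid were added to final levels of 100 uM and 3 uM.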
# [1] = tested on: Rat basophilic leukemia (RBL) cells; experiment: LTB4 secretion assay in RBL (rat basophilic leukemia cells); assay type: cell-based
# In short: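 LTB4 released into supernatant was measured by EIA after 10 min at 37 °C with arachidonic acid (2.5 uM final) and calcium ionophore A23187 (5 uM final). Before stimulation, cells plated 2×10^4/well overnight received compound doses (5 nM to 100 uM) for 15 min in 0.5% FBS medium.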
# Rat whole blood (RWB) = experiment: LTB4 secretion assay in RWB (rat whole blood); assay type: cell-based; details: Rattus norvegicus
# Method: Rat blood was drawn from caudal vena cava from male Sprague Dawley rat (6-9 weeks old) in vacuette coated with sodium heparin (Greiner bio-one, Cat #455051). The blood was pooled and diluted with RPMI (WelGENE, Cat #LM 011-05) to 1:1. The diluted blood was aliquoted into 96 well plate (200 ul per well) and compounds were added in dose response to a desired concentration ranging from 2.5 nM to 50 uM. After 15 min of pre-incubation at 37° C., calcium ionophore (A23187) was added to the final concentration of 10 uM. After 10 min of further incubation at 37° C., the LTB4 production was stopped by diluting the reaction mixture with ice cold PBS (1:4 dilutions). Cells were removed by centrifugation at 1000×g, 4° C. for 10 min, and the supernatant was transferred and then the quantification of LTB4 was done with Leukotriene B4 EIA kit (Cayman, Cat #520111) as instructed.
Structure (SMILES),IC50 (human 5-LOX) [µM],"EC50 ([1]; Rattus norvegicus, RBL) [µM]",EC50 (Rat whole blood (RWB)) [µM],EC50 [1] [µM]
Cc1[nH]nc(Nc2ccc3nc(NCc4ccc(Oc5ccc(Cl)cn5)cc4)n(C)c3c2)c1Cl [Compound 518],> 10,< 10,< 10,
CC(Nc1nc2ccc(NC3COC3)cc2n1C)c1ccc(Oc2ccc(Cl)cn2)cc1 (stereo not shown) [Compound 256],< 1,10 to 20,< 10,
Cn1c(NCc2c(F)cc(Oc3ncc(Cl)cn3)cc2F)nc2ccc(NC3COC3)cc21 [Compound 431],< 1,< 10,< 10,
Nc1ccc2nc(N)n(Cc3ccc(COc4ccc(Cl)cn4)cc3)c2c1 [Compound 249],< 1,< 10,< 10,
Nc1ccc2[nH]c(NCc3ccc4oc(-c5ccc(OC(F)(F)F)cc5)nc4c3)nc2c1 [Compound 1],< 1,,> 20,
CCOC(=O)c1c[nH]nc1Nc1ccc2nc(N)n(CCOc3ccc(OC(F)(F)F)cc3)c2c1 [Compound 22],> 10,,> 20,
Nc1ccc2[nH]c(NCc3ccc(N4CCOCC4)cc3)nc2c1 [Compound 7],< 1,,> 20,
COCCN(Cc1ccc(Oc2ccc(Cl)cn2)cc1)c1nc2ccc(N)cc2n1C [Compound 338],< 1,> 20,,
Nc1ccc2nc(NCc3ccc4cc(Cl)ccc4n3)[nH]c2c1 [Compound 156],< 1,10 to 20,,
Nc1ccc2[nH]c(NC(=O)c3ccc(F)cc3)nc2c1 [Compound 26],1 to 10,> 20,,
Nc1nc2ccc(N3CC(F)(F)C3)cc2n1Cc1ccc(Oc2ccc(Cl)cn2)cc1 [Compound 235],> 10,< 10,,
Nc1cnc2c(c1)nc(N1CCCC1)n2CCOc1ccc(OC(F)(F)F)cc1 [Compound 72],> 10,> 20,,
Cn1c(NCc2ccc(Oc3ccc4cc(F)ccc4n3)cc2)nc2ccc(N)cc21 [Compound 382],< 1,< 10,,
Cn1c(NCc2ccc(Nc3ncc(Cl)cn3)cc2)nc2ccc(N)cc21 [Compound 458],< 1,< 10,,
Cn1c(NCc2ccc(Oc3nc4ccc(Cl)cc4n3C)cc2)nc2ccc(N)cc21 [Compound 428],< 1,< 10,,
CC(C)n1c(NCc2ccc(Oc3ccc(Cl)cn3)cc2)nc2ccc(N)cc21 [Compound 258],< 1,< 10,,
Nc1ccc2nc(N3CCC(C(=O)c4ccc(OC(F)(F)F)cc4)C3)[nH]c2c1 (stereo not shown) [Compound 178],< 1,10 to 20,,
Cn1c(NCc2ccc(Oc3cccnc3)cc2)nc2ccc(N)cc21 [Compound 224],< 1,< 10,,
CN(C)c1nc2cc(NCc3ccc(-c4nc(C(=O)O)co4)cc3)ccc2[nH]1 [Compound 228],< 1,> 20,,

Structure (SMILES),IC50 (human 5-LOX) [µM],"EC50 ([1]; Rattus norvegicus, RBL) [µM]",EC50 (Rat whole blood (RWB)) [µM],EC50 [1] [µM]
CN(C)c1nc2ccc(NCc3ccc(-c4cccc(=O)[nH]4)cc3)cc2[nH]1 [Compound 221],< 1,> 20,,
CC(Nc1ccc2[nH]c(N(C)C)nc2c1)c1ccc(Oc2ccc(Cl)cc2)cc1 (stereo not shown) [Compound 131],< 1,< 10,,
Cn1c(NCc2ccc(Oc3ncc(Cl)cn3)cc2)nc2ccc(NC(=N)N)cc21 [Compound 441],> 10,> 20,,
Cc1cc(Nc2ccc3nc(NCc4ccc(Oc5ncc(Cl)cn5)cc4)n(C)c3n2)n[nH]1 [Compound 500],1 to 10,10 to 20,,
CCC(Nc1nc2ccc(N)cc2n1C)c1ccc(Oc2ccc(Cl)cn2)cc1 (stereo not shown) [Compound 274],< 1,< 10,,
Cn1c(NCc2ccc(Oc3ccncn3)cc2)nc2ccc(N)cc21 [Compound 370],< 1,10 to 20,,
Cc1cc(Nc2ccc3nc(NCc4ccc(Oc5ncc(Cl)cn5)cc4)[nH]c3c2)n[nH]1 [Compound 485],< 1,10 to 20,,
Cn1c(NCc2ccc(Oc3ncc(C(F)(F)F)cn3)cc2)nc2c(F)cc(NC3COC3)cc21 [Compound 551],< 1,< 10,,
Cn1c(N2CCC(C(=O)Nc3ccc(OC(F)(F)F)cc3)C2)nc2ncc(N)cc21 (stereo not shown) [Compound 76],< 1,> 20,,
CCn1c(NCc2ccc(Oc3cnc(Cl)cn3)cc2)nc2ccc(Nc3n[nH]c(C)c3Cl)cc21 [Compound 515],> 10,< 10,,
Cn1c(NCc2ccc(Oc3ncc(Cl)cn3)cc2)nc2ccc(NC3CN(C(=N)N)C3)cc21 [Compound 443],< 1,> 20,,
Cn1c(N(CCO)Cc2ccc(Oc3ccc(Cl)cn3)cc2)nc2ccc(N)cc21 [Compound 317],< 1,> 20,,
Cn1c(NCc2ccc(Oc3ccc(Cl)cn3)cc2)nc2ccc(NCCO)cc21 [Compound 313],< 1,< 10,,
Cn1c(NCc2ccc(Oc3ccc4cccc(Cl)c4n3)cc2)nc2ccc(NC3COC3)cc21 [Compound 422],< 1,< 10,,
CCn1c(NCc2ccc(Oc3ncc(C(F)(F)F)cn3)cc2)nc2ccc(Nc3cc(C(F)(F)F)n(C)n3)cc21 [Compound 521],1 to 10,< 10,,
CN(C)c1nc2cc(NCc3ccc(CC(N)=O)cc3)ccc2[nH]1 [Compound 232],< 1,> 20,,
Cn1c(NCc2ccc(Oc3ccnc4cc(Cl)ccc34)cc2)nc2ccc(N)cc21 [Compound 375],< 1,< 10,,
Nc1ccc2nc(N)n(Cc3ccc(Oc4ccc(Cl)cc4)nc3)c2c1 [Compound 240],< 1,< 10,,
CCn1c(NCc2ccc(Oc3ncc(Cl)cn3)cc2)nc2ccc(Nc3cc(C(F)(F)F)n(C)n3)cc21 [Compound 510],> 10,,,< 10

# The remaining lines, values ahead:
IC50 (human 5-LOX) [µM],"EC50 ([1]; Rattus norvegicus, RBL) [µM]",EC50 (Rat whole blood (RWB)) [µM],EC50 [1] [µM],Structure (SMILES)
< 1,,< 10,,O=C(NC1CC1)c1c[nH]nc1Nc1ccc2[nH]c(NCc3ccc(Oc4ccc(Cl)cc4)cc3)nc2c1 [Compound 12]
< 1,,10 to 20,,Nc1ccc2[nH]c(NCc3ccc(N4CCC(COc5ccc(Cl)cc5)CC4)cc3)nc2c1 [Compound 5]
< 1,,> 20,,Cc1cc(Nc2ccc3[nH]c(NCc4ccc(Oc5ccc(Cl)cc5)cc4)nc3c2)n[nH]1 [Compound 8]
< 1,,> 20,,Nc1ccc2nc(N)n(CCc3ccc(Oc4ccc(Cl)cc4)cc3)c2c1 [Compound 15]
< 1,,> 20,,Clc1ccc(Oc2ccc(CNc3nc4cc(Nc5cccnc5)ccc4[nH]3)cc2)cc1 [Compound 16]
< 1,,10 to 20,,Nc1ccc2[nH]c(NCc3ccc(Oc4ccc(Cl)cc4)cc3F)nc2c1 [Compound 10]
< 1,,> 20,,Nc1ccc2[nH]c(NCc3ccc(N4CCC(OCc5ccc(Cl)cc5)CC4)cc3)nc2c1 [Compound 6]
< 1,,> 20,,CC(C)(Nc1nc2cc(N)ccc2[nH]1)c1ccc(Oc2ccc(Cl)cc2)cc1 [Compound 20]
1 to 10,,10 to 20,,Fc1ccc(Nc2ccc3[nH]c(NCc4ccc(Oc5ccc(Cl)cc5)cc4)nc3c2)cn1 [Compound 23]
< 1,,> 20,,Nc1ccc2[nH]c(NCc3ccc(N4CCC(Oc5ccc(Cl)cc5)C4)cc3)nc2c1 (stereo not shown) [Compound 3]
< 1,,< 10,,Nc1ccc2[nH]c(NCCc3ccc(Oc4ccc(Cl)cc4)cc3)nc2c1 [Compound 11]
< 1,,> 20,,Nc1ccc2[nH]c(NCc3ccc(OCc4ccc(Cl)cc4)cc3)nc2c1 [Compound 4]
< 1,,10 to 20,,Nc1ccc2[nH]c(NCc3ccc(Oc4ccc(Cl)cc4)cc3Cl)nc2c1 [Compound 9]
< 1,< 10,,,CC(C)(CO)Nc1nc2ccc(N)cc2n1Cc1ccc(Oc2ccc(Cl)cc2)cc1 [Compound 187]
1 to 10,,> 20,,CCOC(=O)c1c[nH]nc1Nc1ccc2[nH]c(NCc3ccc(Oc4ccc(Cl)cc4)cc3)nc2c1 [Compound 13]
< 1,10 to 20,,,COc1cc2[nH]c(NCc3ccc(Oc4ccc(Cl)cc4)cc3)nc2cc1N [Compound 146]
